What was measured:
Rattus norvegicus [1] = species: Rattus norvegicus; details: in vivo, po, 6 h
Description: Compound administered at a dose of 6.25 mg/25 mL/kg orally to rats, urine collected for 6 hr and measured for urine volume.

Rattus norvegicus [2] = species: Rattus norvegicus; details: in vivo, po, 6 h; remark: listed apart in the source
Description: Compound administered at a dose of 6.25 mg/25 mL/kg orally to rats, urine collected for 6 hr and measured for K+ excretion.

Rattus norvegicus [3] = species: Rattus norvegicus; details: in vivo, po, 6 h; remark: listed apart in the source
Description: Compound administered at a dose of 6.25 mg/25 mL/kg orally to rats, urine collected for 6 hr and measured for Na+ excretion.

Rattus norvegicus [4] = assay: Compound was evaluated for Serum creatinine concentration in glycerol injected rats treated with 1 mg/kg administered intraperitoneally; type: functional, organism-based; parameters: dose 1 mg/kg
Adenosine receptor A1 [5] = target: T1, Adenosine receptor A1 (Cavia porcellus, UniProt P47745); assay: Binding affinity carried out with [3H]cyclohexyladenosine in guinea pig forebrain membranes against adenosine A1 receptor; type: cell membranes, Brain membranes
T1 sequence (P47745 whole entry): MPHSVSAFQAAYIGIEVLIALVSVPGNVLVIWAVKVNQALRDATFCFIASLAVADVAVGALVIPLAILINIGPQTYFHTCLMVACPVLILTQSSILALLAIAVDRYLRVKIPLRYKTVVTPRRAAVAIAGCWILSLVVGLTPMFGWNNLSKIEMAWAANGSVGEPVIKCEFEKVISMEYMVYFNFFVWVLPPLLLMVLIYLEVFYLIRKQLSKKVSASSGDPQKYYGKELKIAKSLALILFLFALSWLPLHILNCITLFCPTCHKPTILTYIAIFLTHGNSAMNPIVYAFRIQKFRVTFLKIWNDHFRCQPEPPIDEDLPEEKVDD

Adenosine A2 receptor [6] = target: T2, Adenosine A2 receptor (Rattus norvegicus, UniProt P29276+P30543); type: cell membranes, Membrane
Cavia porcellus = species: Cavia porcellus; assay: Ki ratio evaluated as the Ki of A2 to that A1 receptor values.
Rattus norvegicus [7] = assay: Compound was evaluated for Serum creatinine concentration in glycerol injected rats treated with 10 mg/kg administered intraperitoneally.; type: functional, organism-based; parameters: dose 10 mg/kg
Adenosine A2 receptor [8] = target: T2, Adenosine A2 receptor; type: cell membranes, Membrane; remark: listed apart in the source
Adenosine receptor A1 [9] = target: T1, Adenosine receptor A1
Description: Inhibition of [3H]cyclohexyladenosine binding to guinea pig forebrain membranes Adenosine A1 receptor

| Structure (SMILES) | Ki (Adenosine receptor A1 [5]) | Ki (Adenosine A2 receptor [6]) | Ki ratio (Cavia porcellus) | further results |
| --- | --- | --- | --- | --- |
| CCCn1c(=O)c2[nH]c(C3CCCC3)nc2n(CCC)c1=O [1,3-DIPROPYL-8-CYCLOPENTYLXANTHINE [DPCPX]] |  |  |  | Urine volume (Rattus norvegicus [1]): 1.87 ml 6hr-1 100g-1; K+ excretion (Rattus norvegicus [2]): 1.26 ml 6hr-1 100g-1; Na+ excretion (Rattus norvegicus [3]): 1.98 ml 6hr-1 100g-1; Serum creatinine conc (Rattus norvegicus [4]): 3.75 mg/dL |
| CCCn1c(=O)c2nc(C(C3CCCCC3)C3CCCCC3)[nH]c2n(CCC)c1=O | > 100000 nM | > 100000 nM |  |  |
| CCCn1c(=O)c2nc(C(C)Cc3ccccc3)[nH]c2n(CCC)c1=O (centres undefined) |  | 480 nM | 1.8 |  |
| CCCC(CCC)c1nc2c([nH]1)c(=O)n(CCC)c(=O)n2CCC | 78 nM |  |  |  |
| CCCn1c(=O)c2[nH]c(C(c3ccccc3)c3ccccc3)nc2n(CCC)c1=O | 2100 nM |  |  |  |
| CCn1c(=O)c2nc(C(C3CC3)C3CC3)[nH]c2n(CC)c1=O |  |  | 53 |  |
| CCCn1c(=O)c2nc(C(C)CC)[nH]c2n(CCC)c1=O (centres undefined) |  | 1200 nM | 48 |  |
| CCCn1c(=O)[nH]c(=O)c2[nH]c(C(C3CC3)C3CC3)nc21 | 1300 nM | > 100000 nM | > 77 |  |
| CCCn1c(=O)c2[nH]c(C(c3ccc(F)cc3)C3CC3)nc2n(CCC)c1=O (centres undefined) | 250 nM |  |  |  |
| CCCn1c(=O)c2nc(C(CC)Oc3ccccc3)[nH]c2n(CCC)c1=O (centres undefined) | 900 nM | 3300 nM | 3.7 |  |
| CCCn1c(=O)c2c(nc(C(C3CC3)C3CC3)n2CC)n(CCC)c1=O | 1600 nM |  | 8.8 |  |
| CCCn1c(=O)c2nc(C(c3ccccc3)C3CCCC3)[nH]c2n(CCC)c1=O (centres undefined) |  | 4000 nM | 10 |  |
| CCCn1c(=O)c2nc(C(C3CC3)C3CC3)[nH]c2n(CCC)c1=O |  |  | 140 | Serum creatinine conc (Rattus norvegicus [4]): 2.99 mg/dL |
| CCCn1c(=O)c2nc(C(c3ccc(F)cc3)C3CC3)[nH]c2n(CCC)c1=O (centres undefined) |  | 1400 nM | 5.6 |  |
| CCCn1c(=O)c2[nH]c(C(C)Cc3ccccc3)nc2n(CCC)c1=O (centres undefined) | 260 nM |  |  |  |
| CCn1c(=O)c2[nH]c(C(C3CC3)C3CC3)nc2n(CC)c1=O | 13 nM |  |  |  |
| NS(=O)(=O)c1cc(C(=O)O)c(NCc2ccco2)cc1Cl |  |  |  | Serum creatinine conc (Rattus norvegicus [7]): 4.17 mg/dL |
| CCCn1c(=O)c2nc(C(CC)CC)[nH]c2n(CCC)c1=O |  | 570 nM | 30 |  |
| CCCn1c(=O)c2nc(C(CC)c3ccccc3)[nH]c2n(CCC)c1=O (centres undefined) | 100 nM | 1100 nM | 11 |  |
| CCCn1c(=O)c2nc(C(C3CC3C)C3CC3C)[nH]c2n(CCC)c1=O (centres undefined) |  | 1000 nM | 100 |  |

| Structure (SMILES) | Ki (Adenosine receptor A1 [5]) | Ki (Adenosine A2 receptor [6]) | Ki ratio (Cavia porcellus) | further results |
| --- | --- | --- | --- | --- |
| CCCn1c(=O)c2nc(C(c3ccc(OC)cc3)C3CC3)[nH]c2n(CCC)c1=O (centres undefined) | 250 nM |  | 8.8 | Ki (Adenosine A2 receptor [8]): 2.2 µM |
| Cn1c(=O)c2[nH]cnc2n(C)c1=O.O [THEOPHYLLINE] |  |  |  | Serum creatinine conc (Rattus norvegicus [7]): 5.32 mg/dL; Urine volume (Rattus norvegicus [1]): 1.42 ml 6hr-1 100g-1; K+ excretion (Rattus norvegicus [2]): 1.16 ml 6hr-1 100g-1; Na+ excretion (Rattus norvegicus [3]): 1.52 ml 6hr-1 100g-1 |
| CCCn1c(=O)c2[nH]c(C(C)CC)nc2n(CCC)c1=O (centres undefined) | 25 nM |  |  |  |
| Cn1c(=O)c2c(ncn2C)n(C)c1=O [CAFFEINE] |  |  |  | Urine volume (Rattus norvegicus [1]): 0.92 ml 6hr-1 100g-1; K+ excretion (Rattus norvegicus [2]): 0.99 ml 6hr-1 100g-1; Ki (Adenosine receptor A1 [9]): > 100000 nM; K+ excretion (Rattus norvegicus [3]): 1.1 ml 6hr-1 100g-1 |
| CCCn1c(=O)c2[nH]c(C(c3ccccc3)C3CCCC3)nc2n(CCC)c1=O (centres undefined) | 400 nM |  |  |  |
| Cn1c(=O)c2nc(C(C3CC3)C3CC3)[nH]c2n(C)c1=O | 81 nM |  | 33 |  |
| CCCn1c(=O)c2nc(C(c3ccccc3)c3ccccc3)[nH]c2n(CCC)c1=O |  |  | > 48 | Ki (Adenosine A2 receptor [8]): > 100 µM |
| CCCn1c(=O)c2nc(C(c3ccccc3)C3CC3)[nH]c2n(CCC)c1=O (centres undefined) | 150 nM | 1800 nM | 12 |  |
| CCCn1c(=O)c2nc(C(C)C)[nH]c2n(CCC)c1=O | 49 nM | 1500 nM | 31 |  |
| CCCCn1c(=O)c2nc(C(C3CC3)C3CC3)[nH]c2n(CCCC)c1=O | 5.5 nM |  | 80 |  |
| CCCn1c(=O)c2c(nc(C(C3CC3)C3CC3)n2C)n(CCC)c1=O | 7400 nM |  | 3.9 |  |
| CCCn1c(=O)c2nc[nH]c2n(CCC)c1=O |  |  |  | Ki (Adenosine receptor A1 [9]): 1200 nM |
| CC(C)Cn1c(=O)n(C)c(=O)c2[nH]c(C(C3CC3)C3CC3)nc21 | 12 nM |  | 34 |  |
| CCCn1c(=O)c2[nH]c(C(C3CC3C)C3CC3C)nc2n(CCC)c1=O (centres undefined) | 9.7 nM |  |  |  |
| CCCn1c(=O)c2nc(C(C)N)[nH]c2n(CCC)c1=O (centres undefined) | 3000 nM | > 100000 nM | > 33 |  |
| CCCn1c(=O)c2[nH]c(C(C)Cc3ccc(OC)cc3)nc2n(CCC)c1=O (centres undefined) | 220 nM |  |  |  |
| CCCC(CCC)c1nc2c(=O)n(CCC)c(=O)n(CCC)c2[nH]1 |  | 590 nM | 7.6 |  |
| CCCn1c(=O)c2nc(C(C)Cc3ccc(OC)cc3)[nH]c2n(CCC)c1=O (centres undefined) |  | 580 nM | 2.6 |  |
| CCCn1c(=O)c2c(nc(C(C3CC3)C3CC3)n2CCC)n(CCC)c1=O | 13000 nM |  | 0.48 |  |

— ChEMBL document CHEMBL1125889, “8-(Dicyclopropylmethyl)-1,3-dipropylxanthine: a potent and selective adenosine A1 antagonist with renal protective and diuretic activities” (J Med Chem, 1991)
